This is an account of results in publication PMC4676015, “Variant fatty acid-like molecules Conjugation, novel approaches for extending the stability of therapeutic peptides” (Scientific Reports, 2015).

The target in one series is T1, GLP-1 receptor (GLP-1R) (Rattus norvegicus, UniProt P32301).
T1 construct: endogenous in cells; host or cells: rat INS-1 cells
T1 sequence (P32301 22-463): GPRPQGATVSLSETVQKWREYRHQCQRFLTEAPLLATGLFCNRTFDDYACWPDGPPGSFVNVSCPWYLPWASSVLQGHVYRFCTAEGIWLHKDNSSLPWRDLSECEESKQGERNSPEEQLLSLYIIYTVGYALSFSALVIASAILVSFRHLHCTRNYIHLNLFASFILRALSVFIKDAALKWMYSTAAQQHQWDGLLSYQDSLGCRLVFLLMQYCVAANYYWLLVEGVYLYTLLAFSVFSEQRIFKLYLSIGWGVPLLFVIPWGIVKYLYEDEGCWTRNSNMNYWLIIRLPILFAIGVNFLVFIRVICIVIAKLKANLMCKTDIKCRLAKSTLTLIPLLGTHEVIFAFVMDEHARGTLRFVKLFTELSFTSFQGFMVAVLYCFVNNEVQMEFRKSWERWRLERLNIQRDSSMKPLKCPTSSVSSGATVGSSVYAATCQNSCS
In words: GLP-1 receptor binding assay (cellular ELISA). How it is done: Cells were rinsed with PBS and fixed with 4% paraformaldehyde (Thermo Scientific) for 10 min at room temperature and quenched for 5 min with 2% glycine in PBS, pH 7.5. […] After a 2 h incubation at 37 °C in a final volume of 100 μl, the excess peptides were washed, and the cells were blocked with 5% BSA (BD Biosciences). […] Colorimetric changes were analyzed by reading the absorbance at 450 nm in a SpectraMax M5 (Molecular Device) microplate reader. The peptide concentration was plotted against UV absorbance, and the Kd was calculated using Origin 7.0 software.

For another series, the target named is T2, DPP IV enzyme (Homo sapiens, UniProt P27487).
T2 construct: purchased Sigma-Aldrich
T2 sequence (P27487 whole entry, species assumed): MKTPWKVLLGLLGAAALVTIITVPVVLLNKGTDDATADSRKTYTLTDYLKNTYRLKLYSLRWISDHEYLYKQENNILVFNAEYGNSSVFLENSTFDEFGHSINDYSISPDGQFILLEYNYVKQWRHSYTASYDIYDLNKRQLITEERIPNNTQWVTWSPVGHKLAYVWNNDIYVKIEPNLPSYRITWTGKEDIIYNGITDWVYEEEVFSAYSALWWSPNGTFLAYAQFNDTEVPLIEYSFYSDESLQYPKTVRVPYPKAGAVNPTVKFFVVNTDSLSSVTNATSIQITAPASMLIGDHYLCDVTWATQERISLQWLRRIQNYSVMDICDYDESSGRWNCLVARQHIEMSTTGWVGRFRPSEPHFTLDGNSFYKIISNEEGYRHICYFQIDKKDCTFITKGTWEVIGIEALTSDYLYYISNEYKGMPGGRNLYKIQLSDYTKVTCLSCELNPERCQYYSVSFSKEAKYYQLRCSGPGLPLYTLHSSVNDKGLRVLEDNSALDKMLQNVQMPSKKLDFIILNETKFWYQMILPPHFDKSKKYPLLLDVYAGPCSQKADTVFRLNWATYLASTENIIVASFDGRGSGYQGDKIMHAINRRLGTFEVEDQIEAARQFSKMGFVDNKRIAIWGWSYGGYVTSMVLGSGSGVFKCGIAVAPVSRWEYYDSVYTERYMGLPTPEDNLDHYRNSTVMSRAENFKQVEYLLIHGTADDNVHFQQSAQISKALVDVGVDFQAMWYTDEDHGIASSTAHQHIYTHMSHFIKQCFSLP
In words: Stability against DPP IV proteolysis with or without HSA. The format is in vitro ADME. To be noted: 37 °C, GLP-1 (7–37) ELISA; for detectability of full-length peptide at 24 h: pH 7.0, in the presence of human serum albumin (2%).

Where [1] appears, read: DPP IV 0.1 mg/ml, peptide 1 mg/ml.

Procedure for DPP IV enzyme: DPP IV enzyme (0.1 mg/ml) was dissolved in 25 mM potassium phosphate buffer containing 25 mM potassium chloride and 5 mM magnesium chloride, pH 7.0.

With `CC[C@H](C)[C@H](NC(=O)[C@H](Cc1ccccc1)NC(=O)[C@H](CCC(=O)O)NC(=O)[C@H](CCCCN)NC(=O)[C@H](C)NC(=O)[C@H](C)NC(=O)[C@H](CCC(N)=O)NC(=O)CNC(=O)[C@H](CCC(=O)NCCCCCCCCCCCC(=O)O)NC(=O)[C@H](CC(C)C)NC(=O)[C@H](Cc1ccc(O)cc1)NC(=O)[C@H](CO)NC(=O)[C@H](CO)NC(=O)[C@@H](NC(=O)[C@H](CC(=O)O)NC(=O)[C@H](CO)NC(=O)[C@@H](NC(=O)[C@H](Cc1ccccc1)NC(=O)[C@@H](NC(=O)CNC(=O)[C@H](CCC(=O)O)NC(=O)[C@H](C)NC(=O)[C@@H](N)Cc1c[nH]cn1)[C@@H](C)O)[C@@H](C)O)C(C)C)C(=O)N[C@@H](C)C(=O)N[C@@H](Cc1c[nH]c2ccccc12)C(=O)N[C@@H](CC(C)C)C(=O)N[C@H](C(=O)N[C@@H](CCCCN)C(=O)NCC(=O)N[C@@H](CCCNC(=N)N)C(=O)NCC(=O)O)C(C)C` [compound 23], the equilibrium dissociation constant (Kd) at GLP-1 receptor (GLP-1R) was found to be 24.3 ± 1.96 nM. Also, on DPP IV enzyme (setting [1]), the “detectability of full-length peptide at 24 h” value is “still detectable at 24 h”. For the same molecule, the “AUCGLP-1(7–37) in proteolysis solution compared to native GLP-1” value at DPP IV enzyme (DPP IV proteolysis solution, P < 0.01) is recorded as “significantly increased”.
For the molecule `CCCCCCCCNC(=O)CC[C@H](NC(=O)[C@H](CCCCN)NC(=O)[C@H](C)NC(=O)[C@H](C)NC(=O)[C@H](CCC(N)=O)NC(=O)CNC(=O)[C@H](CCC(=O)O)NC(=O)[C@H](CC(C)C)NC(=O)[C@H](Cc1ccc(O)cc1)NC(=O)[C@H](CO)NC(=O)[C@H](CO)NC(=O)[C@@H](NC(=O)[C@H](CC(=O)O)NC(=O)[C@H](CO)NC(=O)[C@@H](NC(=O)[C@H](Cc1ccccc1)NC(=O)[C@@H](NC(=O)CNC(=O)[C@H](CCC(=O)O)NC(=O)[C@H](C)NC(=O)[C@@H](N)Cc1c[nH]cn1)[C@@H](C)O)[C@@H](C)O)C(C)C)C(=O)N[C@@H](Cc1ccccc1)C(=O)N[C@H](C(=O)N[C@@H](C)C(=O)N[C@@H](Cc1c[nH]c2ccccc12)C(=O)N[C@@H](CC(C)C)C(=O)N[C@H](C(=O)N[C@@H](CCCCN)C(=O)NCC(=O)N[C@@H](CCCNC(=N)N)C(=O)NCC(=O)O)C(C)C)[C@@H](C)CC` [compound 16], at GLP-1 receptor (GLP-1R), the Kd stood at 22.3 ± 0.46 nM.
On the same count and under the same terms, the same measure for `CCCCCCCC(=O)NCCCC[C@H](NC(=O)[C@@H](NC(=O)[C@H](CC(C)C)NC(=O)[C@H](Cc1c[nH]c2ccccc12)NC(=O)[C@H](C)NC(=O)[C@@H](NC(=O)[C@H](Cc1ccccc1)NC(=O)[C@H](CCC(=O)O)NC(=O)[C@H](CCCCN)NC(=O)[C@H](C)NC(=O)[C@H](C)NC(=O)[C@H](CCC(N)=O)NC(=O)CNC(=O)[C@H](CCC(=O)O)NC(=O)[C@H](CC(C)C)NC(=O)[C@H](Cc1ccc(O)cc1)NC(=O)[C@H](CO)NC(=O)[C@H](CO)NC(=O)[C@@H](NC(=O)[C@H](CC(=O)O)NC(=O)[C@H](CO)NC(=O)[C@@H](NC(=O)[C@H](Cc1ccccc1)NC(=O)[C@@H](NC(=O)CNC(=O)[C@H](CCC(=O)O)NC(=O)[C@H](C)NC(=O)[C@@H](N)Cc1c[nH]cn1)[C@@H](C)O)[C@@H](C)O)C(C)C)[C@@H](C)CC)C(C)C)C(=O)NCC(=O)N[C@@H](CCCNC(=N)N)C(=O)NCC(=O)O` [compound 4]: 15.4 ± 0.67 nM.
Take `CCCCCCCCCCCCCCCCNC(=O)CC[C@H](NC(=O)[C@H](CC(C)C)NC(=O)[C@H](Cc1ccc(O)cc1)NC(=O)[C@H](CO)NC(=O)[C@H](CO)NC(=O)[C@@H](NC(=O)[C@H](CC(=O)O)NC(=O)[C@H](CO)NC(=O)[C@@H](NC(=O)[C@H](Cc1ccccc1)NC(=O)[C@@H](NC(=O)CNC(=O)[C@H](CCC(=O)O)NC(=O)[C@H](C)NC(=O)[C@@H](N)Cc1c[nH]cn1)[C@@H](C)O)[C@@H](C)O)C(C)C)C(=O)NCC(=O)N[C@@H](CCC(N)=O)C(=O)N[C@@H](C)C(=O)N[C@@H](C)C(=O)N[C@@H](CCCCN)C(=O)N[C@@H](CCC(=O)O)C(=O)N[C@@H](Cc1ccccc1)C(=O)N[C@H](C(=O)N[C@@H](C)C(=O)N[C@@H](Cc1c[nH]c2ccccc12)C(=O)N[C@@H](CC(C)C)C(=O)N[C@H](C(=O)N[C@@H](CCCCN)C(=O)NCC(=O)N[C@@H](CCCNC(=N)N)C(=O)NCC(=O)O)C(C)C)[C@@H](C)CC` [compound 15]: the “degradation in DPP IV proteolysis compared with wild-type GLP-1, within 24 h” value on DPP IV enzyme (DPP IV 0.1 mg/ml, 25 mM potassium phosphate, 25 mM KCl, 5 mM MgCl2, pH 7.0, 2% HSA, peptide 1 mg/ml, 24 h) is recorded as “slower degradation rates”. Further, the “detectability of full-length peptide at 24 h” value on DPP IV enzyme (setting [1]) was “still detectable at 24 h”.
In turn, `CCCCCCCCNC(=O)C[C@H](NC(=O)[C@@H](NC(=O)[C@H](CC(C)C)NC(=O)[C@H](Cc1c[nH]c2ccccc12)NC(=O)[C@H](C)NC(=O)[C@@H](NC(=O)[C@H](Cc1ccccc1)NC(=O)[C@H](CCC(=O)O)NC(=O)[C@H](CCCCN)NC(=O)[C@H](C)NC(=O)[C@H](C)NC(=O)[C@H](CCC(N)=O)NC(=O)CNC(=O)[C@H](CCC(=O)O)NC(=O)[C@H](CC(C)C)NC(=O)[C@H](Cc1ccc(O)cc1)NC(=O)[C@H](CO)NC(=O)[C@H](CO)NC(=O)[C@@H](NC(=O)[C@H](CC(=O)O)NC(=O)[C@H](CO)NC(=O)[C@@H](NC(=O)[C@H](Cc1ccccc1)NC(=O)[C@@H](NC(=O)CNC(=O)[C@H](CCC(=O)O)NC(=O)[C@H](C)NC(=O)[C@@H](N)Cc1c[nH]cn1)[C@@H](C)O)[C@@H](C)O)C(C)C)[C@@H](C)CC)C(C)C)C(=O)NCC(=O)N[C@@H](CCCNC(=N)N)C(=O)NCC(=O)O` [compound 19] came in with an equilibrium dissociation constant (Kd) on GLP-1 receptor (GLP-1R) of 19.6 ± 2.14 nM.
On GLP-1 receptor (GLP-1R), `CCCCCCCCNC(=O)CC[C@H](NC(=O)[C@H](CC(C)C)NC(=O)[C@H](Cc1ccc(O)cc1)NC(=O)[C@H](CO)NC(=O)[C@H](CO)NC(=O)[C@@H](NC(=O)[C@H](CC(=O)O)NC(=O)[C@H](CO)NC(=O)[C@@H](NC(=O)[C@H](Cc1ccccc1)NC(=O)[C@@H](NC(=O)CNC(=O)[C@H](CCC(=O)O)NC(=O)[C@H](C)NC(=O)[C@@H](N)Cc1c[nH]cn1)[C@@H](C)O)[C@@H](C)O)C(C)C)C(=O)NCC(=O)N[C@@H](CCC(N)=O)C(=O)N[C@@H](C)C(=O)N[C@@H](C)C(=O)N[C@@H](CCCCN)C(=O)N[C@@H](CCC(=O)O)C(=O)N[C@@H](Cc1ccccc1)C(=O)N[C@H](C(=O)N[C@@H](C)C(=O)N[C@@H](Cc1c[nH]c2ccccc12)C(=O)N[C@@H](CC(C)C)C(=O)N[C@H](C(=O)N[C@@H](CCCCN)C(=O)NCC(=O)N[C@@H](CCCNC(=N)N)C(=O)NCC(=O)O)C(C)C)[C@@H](C)CC` [compound 13] gave a Kd of 18.7 ± 1.36 nM.
Still for that read-out and setting: under `CCCCCCCCCCCCNC(=O)C[C@H](NC(=O)[C@H](CO)NC(=O)[C@@H](NC(=O)[C@H](Cc1ccccc1)NC(=O)[C@@H](NC(=O)CNC(=O)[C@H](CCC(=O)O)NC(=O)[C@H](C)NC(=O)[C@@H](N)Cc1c[nH]cn1)[C@@H](C)O)[C@@H](C)O)C(=O)N[C@H](C(=O)N[C@@H](CO)C(=O)N[C@@H](CO)C(=O)N[C@@H](Cc1ccc(O)cc1)C(=O)N[C@@H](CC(C)C)C(=O)N[C@@H](CCC(=O)O)C(=O)NCC(=O)N[C@@H](CCC(N)=O)C(=O)N[C@@H](C)C(=O)N[C@@H](C)C(=O)N[C@@H](CCCCN)C(=O)N[C@@H](CCC(=O)O)C(=O)N[C@@H](Cc1ccccc1)C(=O)N[C@H](C(=O)N[C@@H](C)C(=O)N[C@@H](Cc1c[nH]c2ccccc12)C(=O)N[C@@H](CC(C)C)C(=O)N[C@H](C(=O)N[C@@H](CCCCN)C(=O)NCC(=O)N[C@@H](CCCNC(=N)N)C(=O)NCC(=O)O)C(C)C)[C@@H](C)CC)C(C)C` [compound 11] stands 97.4 ± 2.11 nM.
Still for that read-out and setting: the same measure for `CCCCCCCCNC(=O)C[C@H](NC(=O)[C@H](CO)NC(=O)[C@@H](NC(=O)[C@H](Cc1ccccc1)NC(=O)[C@@H](NC(=O)CNC(=O)[C@H](CCC(=O)O)NC(=O)[C@H](C)NC(=O)[C@@H](N)Cc1c[nH]cn1)[C@@H](C)O)[C@@H](C)O)C(=O)N[C@H](C(=O)N[C@@H](CO)C(=O)N[C@@H](CO)C(=O)N[C@@H](Cc1ccc(O)cc1)C(=O)N[C@@H](CC(C)C)C(=O)N[C@@H](CCC(=O)O)C(=O)NCC(=O)N[C@@H](CCC(N)=O)C(=O)N[C@@H](C)C(=O)N[C@@H](C)C(=O)N[C@@H](CCCCN)C(=O)N[C@@H](CCC(=O)O)C(=O)N[C@@H](Cc1ccccc1)C(=O)N[C@H](C(=O)N[C@@H](C)C(=O)N[C@@H](Cc1c[nH]c2ccccc12)C(=O)N[C@@H](CC(C)C)C(=O)N[C@H](C(=O)N[C@@H](CCCCN)C(=O)NCC(=O)N[C@@H](CCCNC(=N)N)C(=O)NCC(=O)O)C(C)C)[C@@H](C)CC)C(C)C` [compound 10]: 88.3 ± 3.27 nM; for `CCCCCCCCCCCCCCCCNC(=O)C[C@H](NC(=O)[C@H](CO)NC(=O)[C@@H](NC(=O)[C@H](Cc1ccccc1)NC(=O)[C@@H](NC(=O)CNC(=O)[C@H](CCC(=O)O)NC(=O)[C@H](C)NC(=O)[C@@H](N)Cc1c[nH]cn1)[C@@H](C)O)[C@@H](C)O)C(=O)N[C@H](C(=O)N[C@@H](CO)C(=O)N[C@@H](CO)C(=O)N[C@@H](Cc1ccc(O)cc1)C(=O)N[C@@H](CC(C)C)C(=O)N[C@@H](CCC(=O)O)C(=O)NCC(=O)N[C@@H](CCC(N)=O)C(=O)N[C@@H](C)C(=O)N[C@@H](C)C(=O)N[C@@H](CCCCN)C(=O)N[C@@H](CCC(=O)O)C(=O)N[C@@H](Cc1ccccc1)C(=O)N[C@H](C(=O)N[C@@H](C)C(=O)N[C@@H](Cc1c[nH]c2ccccc12)C(=O)N[C@@H](CC(C)C)C(=O)N[C@H](C(=O)N[C@@H](CCCCN)C(=O)NCC(=O)N[C@@H](CCCNC(=N)N)C(=O)NCC(=O)O)C(C)C)[C@@H](C)CC)C(C)C` [compound 12]: 84.6 ± 4.36 nM.
